pIC50: −log10 of the molar value.
Legend:
[1] = target: Cyclin-dependent kinase 4 (Homo sapiens, UniProt P11802); assay: Inhibition of CDK4 (unknown origin)
[2] = target: Cyclin-dependent kinase 6 (Homo sapiens, UniProt Q00534); assay: Inhibition of CDK6 (unknown origin)
CDK2/Cyclin A2 = CDK2/Cyclin A2 (Homo sapiens, UniProt P24941); assay: Inhibition of full-length human CDK2/N-terminal GST-tagged Cyclin A2 (1 to 432 residues) expressed in Baculovirus expression system using FAM-P8/P18 as substrate measured after 40 mins
[3] = target: Cyclin-dependent kinase 7 (Homo sapiens, UniProt P50613); assay: Inhibition of CDK7 (unknown origin)
[4] = target: Cyclin-dependent kinase 1 (Homo sapiens, UniProt P06493); assay: Inhibition of CDK1 (unknown origin)
HCT-116 = assay: Antiproliferative activity against human HCT116 cells after 24 hrs by MTT assay; format: functional, cell-based; conditions: HCT-116, 24 h
MCF7 = assay: Antiproliferative activity against human MCF7 cells after 24 hrs by MTT assay; format: functional, cell-based; conditions: MCF7, 24 h
[5] = target: Cyclin-dependent kinase 5 (Homo sapiens, UniProt Q00535); assay: Inhibition of CDK5 (unknown origin)
Sequence of Cyclin-dependent kinase 5 (Q00535 whole entry): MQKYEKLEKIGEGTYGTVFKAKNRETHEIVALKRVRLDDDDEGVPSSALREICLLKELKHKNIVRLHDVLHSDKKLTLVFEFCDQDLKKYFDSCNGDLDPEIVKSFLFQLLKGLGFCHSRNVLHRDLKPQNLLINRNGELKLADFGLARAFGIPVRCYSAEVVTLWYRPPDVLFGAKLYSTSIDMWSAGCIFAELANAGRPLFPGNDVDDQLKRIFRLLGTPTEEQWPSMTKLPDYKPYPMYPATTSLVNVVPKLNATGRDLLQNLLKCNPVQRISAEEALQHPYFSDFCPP

Sequence of Cyclin-dependent kinase 6 (Q00534 whole entry, the tested form may be a part): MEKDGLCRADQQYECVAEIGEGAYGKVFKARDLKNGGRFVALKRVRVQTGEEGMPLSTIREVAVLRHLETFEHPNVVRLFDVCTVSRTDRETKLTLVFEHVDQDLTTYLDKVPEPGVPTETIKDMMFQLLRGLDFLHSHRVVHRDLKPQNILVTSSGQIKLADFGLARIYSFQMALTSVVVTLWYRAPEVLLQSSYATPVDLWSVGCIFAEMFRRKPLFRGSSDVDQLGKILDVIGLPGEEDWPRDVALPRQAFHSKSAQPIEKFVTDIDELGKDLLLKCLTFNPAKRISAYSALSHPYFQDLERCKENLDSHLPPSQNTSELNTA
Sequence of Cyclin-dependent kinase 4 (P11802 whole entry): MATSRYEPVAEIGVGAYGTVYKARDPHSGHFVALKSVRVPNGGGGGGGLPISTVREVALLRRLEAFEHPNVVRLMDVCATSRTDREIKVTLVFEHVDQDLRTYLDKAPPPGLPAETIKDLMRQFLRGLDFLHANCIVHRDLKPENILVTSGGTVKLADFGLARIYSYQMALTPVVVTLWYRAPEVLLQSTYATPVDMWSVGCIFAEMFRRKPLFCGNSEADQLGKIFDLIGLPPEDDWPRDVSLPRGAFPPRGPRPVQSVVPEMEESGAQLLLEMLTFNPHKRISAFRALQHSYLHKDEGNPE
Sequence of Cyclin-dependent kinase 1 (P06493 whole entry): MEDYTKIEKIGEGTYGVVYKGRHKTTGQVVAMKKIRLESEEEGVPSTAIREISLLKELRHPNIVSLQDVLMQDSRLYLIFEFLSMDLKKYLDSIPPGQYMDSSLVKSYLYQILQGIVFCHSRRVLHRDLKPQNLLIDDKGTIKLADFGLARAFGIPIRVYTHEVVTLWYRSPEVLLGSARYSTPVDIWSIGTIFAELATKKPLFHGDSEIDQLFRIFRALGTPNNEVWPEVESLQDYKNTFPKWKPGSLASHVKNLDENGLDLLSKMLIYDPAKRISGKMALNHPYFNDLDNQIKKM
Sequence of Cyclin-dependent kinase 7 (P50613 whole entry): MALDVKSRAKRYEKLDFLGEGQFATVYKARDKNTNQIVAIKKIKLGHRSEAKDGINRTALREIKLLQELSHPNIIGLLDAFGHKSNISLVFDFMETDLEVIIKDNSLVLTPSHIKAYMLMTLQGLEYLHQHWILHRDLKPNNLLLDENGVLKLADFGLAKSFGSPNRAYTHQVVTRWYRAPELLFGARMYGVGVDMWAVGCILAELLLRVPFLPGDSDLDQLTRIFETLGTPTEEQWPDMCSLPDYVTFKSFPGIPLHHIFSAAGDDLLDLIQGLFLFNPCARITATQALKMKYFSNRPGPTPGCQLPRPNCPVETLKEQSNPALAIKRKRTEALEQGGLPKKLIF

Row | Structure (SMILES) | pIC50 [1] | pIC50 [2] | pIC50 (CDK2/Cyclin A2) | pIC50 [3] | pIC50 [4] | pIC50 (HCT-116) | pIC50 (MCF7) | pIC50 [5]
1 | CSc1ncc2c(n1)CCc1cnc(Nc3ccc(C(=O)N4CCN(C(=O)OC(C)(C)C)CC4)cc3)nc1-2 | – | – | 5.43 | – | – | 4.76 | 4.71 | –
2 | CN(C)CCN(C)C(=O)c1ccc(Nc2ncc3c(n2)CCc2cnc(N)nc2-3)cc1 | – | – | 5.49 | – | – | < 4.52 | < 4.52 | –
3 | Clc1ccc(Nc2ncc3c(n2)-c2cnc(Nc4ccccc4)nc2CC3)cc1 | – | – | 5.69 | – | – | 4.58 | 4.63 | –
4 | Nc1ncc2c(n1)-c1cnc(Nc3ccc(C(=O)N4CCOCC4)cc3)nc1CC2 | – | – | – | – | – | < 4.52 | < 4.52 | –
5 | Nc1ncc2c(n1)-c1cnc(Nc3ccc(Cl)cc3)nc1CC2 | – | – | 5.73 | – | – | < 4.52 | < 4.52 | –
6 | c1ccc(Nc2ncc3c(n2)CCc2cnc(Nc4ccccc4)nc2-3)cc1 | – | – | 5.81 | – | – | 4.74 | 4.69 | –
7 | CN1CCN(C(=O)c2ccc(Nc3ncc4c(n3)CCc3cnc(N)nc3-4)cc2)CC1 | – | – | 5.23 | – | – | < 4.52 | < 4.52 | –
8 | CSc1ncc2c(n1)CCc1cnc(Nc3ccc(C(=O)O)cc3)nc1-2 | – | – | 6.01 | – | – | 4.89 | 4.75 | –
9 | Nc1ncc2c(n1)-c1cnc(Nc3ccccc3)nc1CC2 | – | – | 5.77 | – | – | 4.60 | 4.56 | –
10 | CCOC(=O)c1ccc(Nc2ncc3c(n2)-c2cnc(SC)nc2CC3)cc1 | – | – | 5.90 | – | – | 4.84 | 4.60 | –
11 | CSc1ncc2c(n1)CCc1cnc(Nc3ccccc3)nc1-2 | – | – | 6.39 | – | – | 4.90 | 4.81 | –
12 | CCOC(=O)c1ccc(Nc2ncc3c(n2)CCc2cnc(N)nc2-3)cc1 | – | – | – | – | – | < 4.52 | < 4.52 | –

These reach a higher pIC50 (HCT-116). Values come first.

Row | pIC50 [1] | pIC50 [2] | pIC50 (CDK2/Cyclin A2) | pIC50 [3] | pIC50 [4] | pIC50 (HCT-116) | pIC50 (MCF7) | pIC50 [5] | Structure (SMILES)
13 | < 5.30 | < 5.30 | 7.05 | 5.44 | 5.90 | 5.85 | 5.96 | 6.17 | CSc1ncc2c(n1)CCc1cnc(Nc3ccc(C(=O)N(C)CCN(C)C)cc3)nc1-2
14 | – | – | 6.80 | – | – | 5.80 | 5.85 | – | CSc1ncc2c(n1)CCc1cnc(Nc3ccc(N)cc3)nc1-2
15 | – | – | 6.28 | – | – | 5.28 | 5.43 | – | CSc1ncc2c(n1)CCc1cnc(Nc3ccc(C(=O)N(C)C)cc3)nc1-2
16 | – | – | 6.72 | – | – | 5.49 | 5.68 | – | CSc1ncc2c(n1)CCc1cnc(Nc3ccc(C(=O)N4CCOCC4)cc3)nc1-2
17 | – | – | 6.46 | – | – | 5.10 | 5.08 | – | CSc1ncc2c(n1)CCc1cnc(Nc3ccc(F)cc3)nc1-2
18 | – | – | 5.90 | – | – | 5.04 | 5.19 | – | CSc1ncc2c(n1)CCc1cnc(Nc3ccc(C(=O)NC4CCCC4)cc3)nc1-2
19 | – | – | – | – | – | 6.15 | 6.00 | – | CC(C)(C)c1cnc(CSc2cnc(NC(=O)C3CCNCC3)s2)o1 [BMS-387032]
20 | – | – | 6.96 | – | – | 6.05 | 5.89 | – | CSc1ncc2c(n1)CCc1cnc(Nc3ccc(C(N)=O)cc3)nc1-2
21 | – | – | 6.42 | – | – | 5.08 | 5.15 | – | CSc1ncc2c(n1)CCc1cnc(Nc3ccc(Cl)cc3)nc1-2
22 | – | – | 6.80 | – | – | 5.89 | 5.82 | – | CSc1ncc2c(n1)CCc1cnc(Nc3ccc(C(=O)N4CCNCC4)cc3)nc1-2
23 | – | – | 6.74 | – | – | 5.42 | 5.60 | – | CSc1ncc2c(n1)CCc1cnc(Nc3ccc(C(=O)N4CCN(C)CC4)cc3)nc1-2
